Values quoted from earlier work in patent US20050272714A1, “Use of targeted oxidative therapeutic formulation in treatment of diabetes and obesity” (priority 2004, published 2005).

What was measured:
[1] = system: peroxide-sensitive E. coli; details: infused into the blood of infected rabbits
E. coli = details: increasing concentration ex-vivo in rabbit or human blood

In the case of OO [hydrogen peroxide], the bactericidal effect [1] is listed as “no bactericidal effect” and the direct bactericidal activity (E. coli) is listed as “no evidence of direct bactericidal activity”.
